Assay results published in PubChem BioAssay (NCI).
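1) Cells in 96-well plates. 2) Compound, 48 h, 5 concentrations. 3) Linear interpolation between surrounding doses. 4) Unreached endpoint = highest concentration. GI50 is the concentration that inhibits growth by half. TGI denotes the concentration required for complete inhibition of growth.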

How the values were obtained:
Experiment in all cases: NCI anticancer screen, dose series, 48 h
786-0 renal = test system: 786-0 renal
IGROV1 ovarian = test system: IGROV1 ovarian
SK-MEL-2 melanoma = test system: SK-MEL-2 melanoma
MDA-MB-231 breast = test system: MDA-MB-231 breast
CCRF-CEM leukemia = test system: CCRF-CEM leukemia
MOLT-4 leukemia = test system: MOLT-4 leukemia
HCT-116 colon = test system: HCT-116 colon
CAKI-1 renal = test system: CAKI-1 renal
SK-MEL-5 melanoma = test system: SK-MEL-5 melanoma
SF-539 CNS = test system: SF-539 CNS
SF-295 CNS = test system: SF-295 CNS
NCI-H226 lung = test system: NCI-H226 lung
MCF7 breast = test system: MCF7 breast
SNB-75 CNS = test system: SNB-75 CNS
EKVX NSCLC = test system: EKVX NSCLC
RXF 393 renal = test system: RXF 393 renal
SN12C renal = test system: SN12C renal
SK-OV-3 ovarian = test system: SK-OV-3 ovarian
U251 CNS = test system: U251 CNS
HT29 colon = test system: HT29 colon
OVCAR-3 ovarian = test system: OVCAR-3 ovarian
SR leukemia = test system: SR leukemia
UACC-257 melanoma = test system: UACC-257 melanoma
DU-145 prostate = test system: DU-145 prostate
UO-31 renal = test system: UO-31 renal
NCI-H522 lung = test system: NCI-H522 lung
SW-620 colon = test system: SW-620 colon
HCC-2998 colon = test system: HCC-2998 colon
BT-549 breast = test system: BT-549 breast
T-47D breast = test system: T-47D breast
RPMI-8226 leukemia = test system: RPMI-8226 leukemia
PC-3 prostate = test system: PC-3 prostate
K-562 leukemia = test system: K-562 leukemia
MDA-MB-435 = test system: MDA-MB-435
NCI-H460 lung = test system: NCI-H460 lung
HCT-15 colon = test system: HCT-15 colon
COLO 205 colon = test system: COLO 205 colon
MDA-MB-468 breast = test system: MDA-MB-468 breast
HL-60(TB) leukemia = test system: HL-60(TB) leukemia
HOP-62 NSCLC = test system: HOP-62 NSCLC
UACC-62 melanoma = test system: UACC-62 melanoma
SK-MEL-28 melanoma = test system: SK-MEL-28 melanoma
NCI/ADR-RES ovarian = test system: NCI/ADR-RES ovarian
ACHN renal = test system: ACHN renal
KM12 colon = test system: KM12 colon
M14 melanoma = test system: M14 melanoma
HOP-92 NSCLC = test system: HOP-92 NSCLC
OVCAR-5 ovarian = test system: OVCAR-5 ovarian
MALME-3M melanoma = test system: MALME-3M melanoma
A498 renal = test system: A498 renal
HS 578T breast = test system: HS 578T breast
NCI-H23 lung = test system: NCI-H23 lung
OVCAR-8 ovarian = test system: OVCAR-8 ovarian
LOX IMVI melanoma = test system: LOX IMVI melanoma
SF-268 CNS = test system: SF-268 CNS
OVCAR-4 ovarian = test system: OVCAR-4 ovarian
SNB-19 CNS = test system: SNB-19 CNS
A549 NSCLC = test system: A549 NSCLC
TK-10 renal = test system: TK-10 renal

## O=C(Nc1cccc(C(F)(F)F)c1)c1cncc(C#Cc2cnc3ccc(N4CCOCC4)nn23)c1
786-0 renal
  GI50: 8.11 µM
  TGI: 42.9 µM
IGROV1 ovarian
  GI50: 2.08 µM
  TGI: 12.4 µM
SK-MEL-2 melanoma
  GI50: 3.87 µM
  TGI: 13.6 µM
MDA-MB-231 breast
  GI50: 1.13 µM
  TGI: 9.33 µM
CCRF-CEM leukemia
  GI50: 5.21 µM
  TGI: 48.8 µM
MOLT-4 leukemia
  GI50: 14.6 µM
  TGI: > 86.8 µM
HCT-116 colon
  GI50: 1.92 µM
  TGI: 13.4 µM
CAKI-1 renal
  GI50: 4.23 µM
  TGI: 47.4 µM
SK-MEL-5 melanoma
  GI50: 11.2 µM
  TGI: 22.8 µM
SF-539 CNS
  GI50: 1.11 µM
  TGI: 3.01 µM
SF-295 CNS
  GI50: 11 µM
  TGI: 29.8 µM
NCI-H226 lung
  GI50: 1.7 µM
  TGI: > 86.8 µM
MCF7 breast
  GI50: 2.76 µM
  TGI: 26.4 µM
SNB-75 CNS
  GI50: 1.76 µM
  TGI: 7.71 µM
EKVX NSCLC
  GI50: 4.49 µM
  TGI: 21 µM
RXF 393 renal
  GI50: 2.36 µM
  TGI: 6.36 µM
SN12C renal
  GI50: 2.49 µM
  TGI: 25.3 µM
SK-OV-3 ovarian
  GI50: 7.01 µM
  TGI: 48.8 µM
U251 CNS
  GI50: 15.4 µM
  TGI: 67.2 µM
HT29 colon
  GI50: 3.12 µM
  TGI: 20.8 µM
OVCAR-3 ovarian
  GI50: 8.91 µM
  TGI: 52.6 µM
SR leukemia
  GI50: 2.94 µM
  TGI: > 86.8 µM
UACC-257 melanoma
  GI50: 10.1 µM
  TGI: 56.6 µM
DU-145 prostate
  GI50: 4.3 µM
  TGI: 80 µM
UO-31 renal
  GI50: 3.31 µM
  TGI: 19.2 µM
NCI-H522 lung
  GI50: 9.08 µM
  TGI: 24.5 µM
SW-620 colon
  GI50: 3.03 µM
  TGI: > 86.8 µM
HCC-2998 colon
  GI50: 5.97 µM
  TGI: 35.6 µM
BT-549 breast
  GI50: 5.13 µM
  TGI: 26.3 µM
T-47D breast
  GI50: 9.23 µM
  TGI: 62.1 µM
RPMI-8226 leukemia
  GI50: 12.5 µM
  TGI: 44.9 µM
PC-3 prostate
  GI50: 10.8 µM
  TGI: 72.6 µM
K-562 leukemia
  GI50: 1.89 µM
  TGI: > 86.8 µM
MDA-MB-435
  GI50: 4.33 µM
  TGI: 18.2 µM
NCI-H460 lung
  GI50: 11 µM
  TGI: 27.4 µM
HCT-15 colon
  GI50: 6.58 µM
  TGI: 51.2 µM
COLO 205 colon
  GI50: 3.2 µM
  TGI: 11.4 µM
MDA-MB-468 breast
  GI50: 12.8 µM
  TGI: 27 µM
HL-60(TB) leukemia
  GI50: 0.834 µM
  TGI: 42.3 µM
HOP-62 NSCLC
  GI50: 2.39 µM
  TGI: 35.4 µM
UACC-62 melanoma
  GI50: 2.74 µM
  TGI: 13.4 µM
SK-MEL-28 melanoma
  GI50: 4.85 µM
  TGI: 23 µM
NCI/ADR-RES ovarian
  GI50: 9.21 µM
  TGI: 44.6 µM
ACHN renal
  GI50: 3.67 µM
  TGI: 42.3 µM
KM12 colon
  GI50: 0.00868 µM
  TGI: 14.1 µM
M14 melanoma
  GI50: 3.47 µM
  TGI: 14.8 µM
HOP-92 NSCLC
  GI50: 1.24 µM
  TGI: 3.47 µM
OVCAR-5 ovarian
  GI50: 2.74 µM
  TGI: 38.6 µM
MALME-3M melanoma
  GI50: 4.24 µM
  TGI: 18.7 µM
A498 renal
  GI50: 5.53 µM
  TGI: 16.6 µM
HS 578T breast
  GI50: 1.62 µM
  TGI: 5.45 µM
NCI-H23 lung
  GI50: 2.38 µM
  TGI: 11.7 µM
OVCAR-8 ovarian
  GI50: 5.9 µM
  TGI: 82.2 µM
LOX IMVI melanoma
  GI50: 2.55 µM
  TGI: 11.6 µM
SF-268 CNS
  GI50: 4.58 µM
  TGI: 34.8 µM
OVCAR-4 ovarian
  GI50: 15 µM
  TGI: > 86.8 µM
SNB-19 CNS
  GI50: 17.1 µM
  TGI: 49.8 µM
A549 NSCLC
  GI50: 8.38 µM
  TGI: > 86.8 µM
TK-10 renal
  GI50: 6.98 µM
  TGI: 51.9 µM
